Measured values from US20230312550A1, “N-(2-(4-CYANOTHIAZOLIDIN-3-YL)-2-OXOETHYL)-QUINOLINE-4-CARBOXAMIDES” (AstraZeneca AB, priority 2020, published 2023).
Converted amounts (≈) assume the structure as drawn.

Columns and labels:
FAP [1] = target: FAP (Mus musculus (Mouse), UniProt P97321); test: FAP plasma inhibition assay, mouse plasma; assay type: biochemical; conditions: mouse plasma diluted 1:67, Ala-Pro-AMC 75 μM
Procedure, shortened: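 K2EDTA plasma served as enzyme source, human diluted 1:40 and mouse 1:67, in PBS with 0.1% BSA. Compounds ran as a 10-point 3-fold series from 500 nM final, in duplicate, 40 min at rt in the dark, with fluorescence read against a pre-substrate blank. IC50 came from % inhibition versus log concentration.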

hFAP (M39-A757) = hFAP (M39-A757) (Homo sapiens (Human), UniProt Q12884); test: hFAP binding assay (surface plasmon resonance); conditions: SPR, 20° C.; for hFAP Binding assay k(off) / hFAP Binding assay k(on): single cycle kinetics; for Kd: n = 1 or geometric mean n = 2-4
[2] = target: human dipeptidylpeptidase 9 (hDPP9) (Homo sapiens (Human), UniProt Q86TI2); test: hDPP9 inhibition assay; assay type: biochemical; conditions: hDPP9 0.4 nM, Ala-Pro-amino-methylcoumarin 5 μM, n = 1
Description: (§1) Compounds were tested in a biochemical inhibition assay using human dipeptidylpeptidase 9 (hDPP9) enzyme at 0.4 nM FAC (BPS Bioscience, #80090) and the substrate Ala-Pro-amino-methylcoumarin (BPS Bioscience #80305) at 5 μM FAC. The enzymatic reactions were conducted in duplicate at rt for 30 min in 50 μL DPP assay buffer (BPS Bioscience, #80300). […] The plates were read on a Tecan Infinite M1000 microplate reader with excitation 340 nm and emission 460 nm. Data were analyzed in Graph Pad Prism. IC50 values were determined by plotting % inhibition versus log compound concentration and using a one site dose response model. Raw data signals were normalized using 1% DMSO as 0% control and no enzyme as 100% inhibitor control.

[3] = target: human dipeptidylpeptidase 7 (hDPP7) (Homo sapiens (Human), UniProt Q9UHL4); test: hDPP7 inhibition assay; assay type: biochemical; conditions: hDPP7 15 nM, Ala-Pro-amino-methylcoumarin 5 μM, n = 1
Description: Compounds were tested in a biochemical inhibition assay using human dipeptidylpeptidase 7 (hDPP7) enzyme at 15 nM FAC (BPS Bioscience, #80070) and the substrate Ala-Pro-amino-methylcoumarin (BPS Bioscience, #80305) at 5 μM FAC. The enzymatic reactions were conducted in duplicate at rt for 30 min in 50 μL DPP assay buffer (BPS Bioscience, #80300). Compound solutions (in DMSO) at 10 CR, 3 fold dilution series were prepared in assay buffer ten-fold higher than the final concentration, and 5 μL of the dilution was added to a 50 μL reaction so that the highest compound concentration was 100 μM FAC and the concentration of DMSO was 1% in all wells. The plates were read on a Tecan Infinite M1000 microplate reader with excitation 340 nm and emission 460 nm. Data were analyzed in Graph Pad Prism. IC50 values were determined by plotting % inhibition versus log compound concentration and using a one site dose response model. Raw data signals were normalized using 1% DMSO as 0% control and no enzyme as 100% inhibitor control.

[4] = target: human dipeptidylpeptidase 8 (hDPP8) (Homo sapiens (Human), UniProt Q6V1X1); test: hDPP8 inhibition assay; assay type: biochemical; conditions: Ala-Pro-amino-methylcoumarin 5 μM, n = 1
Description: as §1, with “The” for “Compounds were tested in a biochemical inhibition assay using human dipeptidylpeptidase 9 (hDPP9) enzyme at 0.4 nM FAC (BPS Bioscience, #80090) and the substrate Ala-Pro-amino-methylcoumarin (BPS Bioscience #80305) at 5 μM FAC. The”

[5] = target: Prolyl endopeptidase, Prolyl Oligopeptidase (hPREP) (Homo sapiens (Human), UniProt P48147); test: hPrep inhibition assay; assay type: biochemical; conditions: hPREP 0.6 nM, Z-Gly-Pro-amino-methylcoumarin 50 μM; read-out: PREP IC50
Procedure, shortened: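 Fluorogenic read-out (340 nm excitation, 460 nm emission) after 20 min at rt, using 50 μM final Z-Gly-Pro-aminomethylcoumarin and 0.6 nM final enzyme, following 15 min compound preincubation. Buffer pH 7.5 with glutathione and Triton X-100. IC50 via one-site model on % inhibition vs log concentration.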

FAP [6] = target: FAP (Homo sapiens (Human), UniProt Q12884); test: hFAP inhibition assay; assay type: biochemical; conditions: hFAP […], Ala-Pro-AMC 20 μM; n = 1 or geometric mean n = 2-3
Procedure, shortened: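 Compounds (10-point, 3-fold dilutions from 50 μM top) were preincubated 15 min at rt in the dark with 0.48 nM hFAP in pH 7.4 Tris/NaCl/Chaps buffer. Reaction was started with substrate (40 μM solution) and ran 30 min at rt. Read by fluorescence (340/460 nm); IC50 from one-site fit.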

physchem = conditions: kinetic from dmso stock
Description: Kinetic solubility was measured as described in Comput Aided Mol Des 2015, 29, 795.

[7] = target: human Fibroblast activation protein alpha (hFAP) (Homo sapiens (Human), UniProt Q12884); test: hFAP inhibition assay (tight binders); assay type: biochemical; conditions: Ala-Pro-AMC 20 μM, n = 1 or geometric mean n = 2-6; note: hFAP 2.4 pM
Description: The plates were read on a PHERAstar® reader with excitation 340 nm and emission 460 nm. Data were analyzed in Genedata Screener®. IC50 values were determined by plotting % inhibition versus log compound concentration and using a one site dose response model.

in vitro [8] = conditions: human, microsomes, HLM CLint
Description: Metabolic stability in HLM was measured as described in J Comput Aided Mol Des 2015, 29, 795.

[9] = rat, hepatocytes
in vitro [10] = conditions: human, Caco-2
Description: Caco-2 cell permeability was measured as described in Mol Pharm 2017, 14, 1601.

[11] = target: Fibroblast Activation Protein alpha (FAP) (Mus musculus (Mouse), UniProt P97321); test: in vivo
Chain of Fibroblast Activation Protein alpha (FAP) (P97321 24-761): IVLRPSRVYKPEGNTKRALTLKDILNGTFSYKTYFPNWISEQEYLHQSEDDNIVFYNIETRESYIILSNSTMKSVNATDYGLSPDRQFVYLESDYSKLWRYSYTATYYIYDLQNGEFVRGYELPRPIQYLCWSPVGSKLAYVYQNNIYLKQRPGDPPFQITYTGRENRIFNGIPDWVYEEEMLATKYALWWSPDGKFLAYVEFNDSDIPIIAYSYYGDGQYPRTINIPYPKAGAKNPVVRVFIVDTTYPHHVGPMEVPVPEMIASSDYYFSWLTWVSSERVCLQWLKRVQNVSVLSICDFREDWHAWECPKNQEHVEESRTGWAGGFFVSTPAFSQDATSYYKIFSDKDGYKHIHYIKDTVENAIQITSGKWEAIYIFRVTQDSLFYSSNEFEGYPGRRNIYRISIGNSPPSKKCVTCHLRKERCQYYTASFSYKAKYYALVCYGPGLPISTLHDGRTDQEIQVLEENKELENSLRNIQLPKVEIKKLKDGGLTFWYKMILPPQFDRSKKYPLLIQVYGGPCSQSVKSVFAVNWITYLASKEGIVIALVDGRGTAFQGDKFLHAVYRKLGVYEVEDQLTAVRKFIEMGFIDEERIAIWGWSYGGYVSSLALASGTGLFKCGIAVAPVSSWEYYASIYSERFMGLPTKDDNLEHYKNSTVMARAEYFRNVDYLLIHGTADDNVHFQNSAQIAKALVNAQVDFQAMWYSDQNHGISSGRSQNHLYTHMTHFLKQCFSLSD
Description: The effect of test compound on FAP enzyme activity in mouse plasma was evaluated in an enzymatic assay using the Fibroblast Activation Protein alpha (FAP) specific fluorogenic substrate dipeptide-Coumarin, Ala-Pro-AMC, (ARI-3144).
Male C57Bl/6 mice (Charles River, Germany), 8 weeks of age, were single housed in a temperature-controlled room with a 12-hour light/dark cycle (06:00-18:00 light). The mice had ad libitum access to water and rodent chow diet (R70, Lactamin, Kimstad, Sweden), and were acclimated for 5 days upon arrival. After acclimation, all mice received a single oral dose of test compound (3 or 10 mg/kg). Blood samples for whole blood compound exposure measurements were taken at 0.25, 0.5, 1, 2, 4, 8 and 24 h post oral dosing. Samples were collected in EDTA capillary tubes (20 μL, K2E, REF 19.447) and were transferred to a 96-deep well plate (NUNC, Thermo Discher Scientific) and stored at −20° C. until further analyses were performed. Blood samples for plasma FAP enzyme activity measurements were taken at 0, 0.25, 0.5, 1, 2, 8 and 24 h post dosing. 25 μL of whole blood was collected in EDTA Microvette® CB 300 (K2E, REF 16.444.100) tubes, and were centrifuged at 4,000×g for 5 min. 10 μL of plasma was then transferred to PCR tubes and stored at −20° C. until further analysis was performed. All blood samples were taken by vena saphena puncture.
Recombinant human FAP (PB-17-1837, construct PL-17-0278, cd33-FAP (27-757)-6His, Mw85926 Da) was used as a standard for this assay. […] The plates were read on a Beckman Paradigm reader with excitation 360 nm and emission 465 nm. Fluorescence measurements were performed with kinetic read every 5 minutes for 60 min at room temperature. Data were analyzed in Excel (IDBS XLfit Add-In) using a Linear Regression (y=k*x+m) model to prepare a human recombinant FAP standard curve.
On the day of the assay, plasma was diluted (1:2) to 20 μL volume in buffer (PBS, 0.1% BSA) and 7.5 μL was transferred to the assay plate (384-well black, fluotrack PS, Greiner 781076). Ala-Pro-AMC (stock solution in 10 mM DMSO) was diluted in buffer (PBS, 0.1% BSA) to 150 μM concentration (180 μL stock solution to 12 mL buffer) and 7.5 μL added to the assay plate followed by a pipetting mix. The plates were read on a Beckman Paradigm reader with excitation 360 nm and emission 465 nm. Fluorescence measurements were performed with kinetic read every 5 minutes for 60 minutes at room temperature. As noted above, FAP cleaves Ala-Pro-AMC to release free AMC which is measured as a fluorescent signal.
The in vivo potency IC50 of each test compound was then estimated by relating the plasma exposure C of the compound to target engagement E in plasma using the following equation:
where E0 is the FAP baseline in plasma prior to dosing and Imax is the maximum effect of the compound. Data from each target engagement experiment were considered separately and therefore slightly different estimates of FAP baseline for each compound were obtained. […] The parameter estimation was done in Phoenix WinNonlin Certara build 8.1.0.3530 with the algorithm ‘Naïve pooled’ as parameter estimation method.

Chain of hFAP (M39-A757) (Q12884 39-757): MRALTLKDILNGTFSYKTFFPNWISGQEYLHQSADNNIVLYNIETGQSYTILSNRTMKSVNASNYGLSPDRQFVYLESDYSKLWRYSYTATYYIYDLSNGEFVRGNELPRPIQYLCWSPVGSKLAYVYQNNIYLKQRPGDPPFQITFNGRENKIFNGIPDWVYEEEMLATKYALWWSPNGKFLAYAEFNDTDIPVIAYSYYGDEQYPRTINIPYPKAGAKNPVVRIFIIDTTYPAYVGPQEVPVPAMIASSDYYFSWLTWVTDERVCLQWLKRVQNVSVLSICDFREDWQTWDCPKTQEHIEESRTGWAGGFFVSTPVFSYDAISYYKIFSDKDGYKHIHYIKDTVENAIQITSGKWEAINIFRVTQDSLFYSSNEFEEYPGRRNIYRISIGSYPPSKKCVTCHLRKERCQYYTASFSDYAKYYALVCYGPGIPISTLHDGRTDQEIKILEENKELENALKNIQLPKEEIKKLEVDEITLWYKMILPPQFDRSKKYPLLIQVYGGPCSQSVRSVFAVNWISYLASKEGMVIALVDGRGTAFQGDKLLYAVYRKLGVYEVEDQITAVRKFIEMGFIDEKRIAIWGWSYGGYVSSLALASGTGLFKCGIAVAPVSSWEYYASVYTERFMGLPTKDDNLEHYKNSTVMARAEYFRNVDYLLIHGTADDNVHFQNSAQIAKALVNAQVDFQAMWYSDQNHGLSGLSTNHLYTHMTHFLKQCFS
Chain of Prolyl endopeptidase, Prolyl Oligopeptidase (hPREP) (P48147 whole entry): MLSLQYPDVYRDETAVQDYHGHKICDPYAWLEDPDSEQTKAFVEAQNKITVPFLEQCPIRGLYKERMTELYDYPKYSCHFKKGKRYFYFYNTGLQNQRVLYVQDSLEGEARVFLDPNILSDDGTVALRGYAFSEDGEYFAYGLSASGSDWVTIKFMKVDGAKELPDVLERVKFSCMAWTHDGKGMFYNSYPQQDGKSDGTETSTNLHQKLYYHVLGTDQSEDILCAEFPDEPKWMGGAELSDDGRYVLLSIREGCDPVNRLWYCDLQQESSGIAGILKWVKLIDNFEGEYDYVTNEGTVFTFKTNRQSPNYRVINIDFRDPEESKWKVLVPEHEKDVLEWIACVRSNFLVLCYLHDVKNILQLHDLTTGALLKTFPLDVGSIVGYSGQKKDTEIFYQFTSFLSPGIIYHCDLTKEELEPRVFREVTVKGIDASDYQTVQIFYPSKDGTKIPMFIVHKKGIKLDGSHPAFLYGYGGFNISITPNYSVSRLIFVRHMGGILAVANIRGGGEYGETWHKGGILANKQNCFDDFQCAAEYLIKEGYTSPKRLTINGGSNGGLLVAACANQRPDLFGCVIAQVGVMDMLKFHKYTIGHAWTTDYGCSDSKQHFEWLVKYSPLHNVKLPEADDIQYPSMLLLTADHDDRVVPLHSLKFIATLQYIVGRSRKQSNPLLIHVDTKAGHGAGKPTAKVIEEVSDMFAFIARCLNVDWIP
Chain of human dipeptidylpeptidase 9 (hDPP9) (Q86TI2 whole entry): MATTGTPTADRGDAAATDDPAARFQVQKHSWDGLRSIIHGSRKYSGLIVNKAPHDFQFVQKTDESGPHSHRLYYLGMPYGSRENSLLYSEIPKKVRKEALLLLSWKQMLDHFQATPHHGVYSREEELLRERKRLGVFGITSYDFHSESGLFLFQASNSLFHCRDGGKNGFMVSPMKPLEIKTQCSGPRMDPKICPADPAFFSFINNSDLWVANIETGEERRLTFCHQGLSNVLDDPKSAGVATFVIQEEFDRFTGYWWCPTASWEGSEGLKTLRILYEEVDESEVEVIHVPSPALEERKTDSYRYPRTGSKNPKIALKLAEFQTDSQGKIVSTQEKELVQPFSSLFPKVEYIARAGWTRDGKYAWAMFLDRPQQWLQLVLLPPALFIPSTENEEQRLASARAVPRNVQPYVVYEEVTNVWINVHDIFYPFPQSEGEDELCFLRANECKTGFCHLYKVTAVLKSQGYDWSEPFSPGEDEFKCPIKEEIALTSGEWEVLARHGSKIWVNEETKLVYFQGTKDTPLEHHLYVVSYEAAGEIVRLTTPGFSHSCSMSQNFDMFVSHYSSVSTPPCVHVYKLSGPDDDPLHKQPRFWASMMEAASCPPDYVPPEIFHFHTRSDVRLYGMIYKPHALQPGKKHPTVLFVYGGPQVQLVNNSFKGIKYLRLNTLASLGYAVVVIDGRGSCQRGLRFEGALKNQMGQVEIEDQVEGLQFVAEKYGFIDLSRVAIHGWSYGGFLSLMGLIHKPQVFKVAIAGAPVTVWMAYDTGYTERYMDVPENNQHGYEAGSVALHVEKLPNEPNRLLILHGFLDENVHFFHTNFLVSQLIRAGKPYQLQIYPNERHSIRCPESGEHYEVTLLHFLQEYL
Chain of human dipeptidylpeptidase 8 (hDPP8) (Q6V1X1 whole entry): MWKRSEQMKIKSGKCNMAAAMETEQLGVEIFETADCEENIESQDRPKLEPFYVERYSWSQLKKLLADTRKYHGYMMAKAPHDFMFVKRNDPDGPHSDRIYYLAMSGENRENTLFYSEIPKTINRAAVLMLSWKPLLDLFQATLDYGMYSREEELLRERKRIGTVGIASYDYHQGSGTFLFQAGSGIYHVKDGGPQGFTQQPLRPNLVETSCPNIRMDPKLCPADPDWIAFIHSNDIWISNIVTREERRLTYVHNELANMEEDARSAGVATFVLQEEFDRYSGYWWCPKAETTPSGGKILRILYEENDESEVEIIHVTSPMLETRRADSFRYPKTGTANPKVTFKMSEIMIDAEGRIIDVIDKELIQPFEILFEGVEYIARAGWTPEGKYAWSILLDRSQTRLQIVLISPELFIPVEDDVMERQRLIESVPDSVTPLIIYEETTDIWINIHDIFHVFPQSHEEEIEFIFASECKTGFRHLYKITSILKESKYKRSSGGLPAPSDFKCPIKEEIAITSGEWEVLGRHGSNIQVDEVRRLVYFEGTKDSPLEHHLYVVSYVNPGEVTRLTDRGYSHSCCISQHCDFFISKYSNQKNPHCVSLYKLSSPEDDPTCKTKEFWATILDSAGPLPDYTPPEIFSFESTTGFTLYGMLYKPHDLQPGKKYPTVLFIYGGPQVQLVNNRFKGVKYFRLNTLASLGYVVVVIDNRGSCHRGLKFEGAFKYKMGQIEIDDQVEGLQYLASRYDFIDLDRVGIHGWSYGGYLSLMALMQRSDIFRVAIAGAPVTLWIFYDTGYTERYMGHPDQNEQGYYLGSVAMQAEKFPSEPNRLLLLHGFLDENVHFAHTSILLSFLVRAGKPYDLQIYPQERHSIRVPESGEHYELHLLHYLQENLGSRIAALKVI
Chain of human Fibroblast activation protein alpha (hFAP) (Q12884 38-760): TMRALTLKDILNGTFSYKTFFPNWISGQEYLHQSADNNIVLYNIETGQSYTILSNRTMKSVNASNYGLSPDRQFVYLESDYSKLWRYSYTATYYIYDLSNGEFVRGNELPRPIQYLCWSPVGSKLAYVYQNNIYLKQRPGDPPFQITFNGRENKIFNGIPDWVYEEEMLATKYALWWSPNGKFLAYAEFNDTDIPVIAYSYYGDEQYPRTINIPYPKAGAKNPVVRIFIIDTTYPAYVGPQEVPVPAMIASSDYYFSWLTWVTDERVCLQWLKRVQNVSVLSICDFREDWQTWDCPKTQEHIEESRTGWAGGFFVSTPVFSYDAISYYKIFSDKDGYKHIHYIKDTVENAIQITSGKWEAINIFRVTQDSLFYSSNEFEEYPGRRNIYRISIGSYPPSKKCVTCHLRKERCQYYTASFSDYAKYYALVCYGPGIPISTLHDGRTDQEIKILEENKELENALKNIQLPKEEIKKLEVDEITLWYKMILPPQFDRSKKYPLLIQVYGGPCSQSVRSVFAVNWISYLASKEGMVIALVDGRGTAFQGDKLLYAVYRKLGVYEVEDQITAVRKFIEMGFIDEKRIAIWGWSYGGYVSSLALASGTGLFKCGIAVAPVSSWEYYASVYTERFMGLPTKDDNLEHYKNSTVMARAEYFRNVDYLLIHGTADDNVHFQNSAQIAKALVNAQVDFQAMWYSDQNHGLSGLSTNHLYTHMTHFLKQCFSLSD
Chain of FAP (Mus musculus (Mouse), UniProt P97321) (P97321 24-761): as the sequence (P97321 24-761) above
Chain of FAP (Homo sapiens (Human), UniProt Q12884) (Q12884 38-760): as the sequence (Q12884 38-760) above

| IC50 (FAP [1]) | IC50 [2] | IC50 [3] | IC50 [4] | IC50 [11] | Compound | hFAP Binding assay k(off) (hFAP (M39-A757)) | hFAP Binding assay k(on) (hFAP (M39-A757)) | IC50 [5] | Kd (hFAP (M39-A757)) | IC50 (FAP [6]) | solubility (physchem) | IC50 [7] | microsomal CLint (in vitro [8]) | rHep CLint [9] | Papp A→B (in vitro [10]) | Papp B→A (in vitro [10]) | efflux ratio (in vitro [10]) |
| --- | --- | --- | --- | --- | --- | --- | --- | --- | --- | --- | --- | --- | --- | --- | --- | --- | --- |
| 0.3 nM | 1400 nM | > 100000 nM | 4700 nM |  | C[C@@H]1CN(c2ccc3nccc(C(=O)NCC(=O)N4CSC[C@H]4C#N)c3c2)C[C@@H](C)O1 [Example 70, N-(2-((R)-4-Cyanothiazolidin-3-yl)-2-oxoethyl)-6-((2R,6R)-2,6-dimethylmorpholino)-quinoline-4-carboxamide] | 0.00014 s⁻¹ | 5400000 M⁻¹ s⁻¹ | 1100 nM |  |  |  |  |  |  |  |  |  |
|  |  |  |  |  | N#C[C@@H]1CSCN1C(=O)CNC(=O)c1ccnc2ccc(N3C4CCC3CC4)cc12 [Example 209, (R)-6-(7-Azabicyclo[2.2.1]heptan-7-yl)-N-(2-(4-cyanothiazolidin-3-yl)-2-oxoethyl)quinoline-4-carboxamide] | 0.000042 s⁻¹ | 3200000 M⁻¹ s⁻¹ | 540 nM | 0.02 nM | 0.44 nM | 970 µM (≈ 409 µg/mL) | 0.15 nM | 170 µL/min/mg | 52 μL/min/1E6 |  |  |  |
|  |  |  |  |  | N#C[C@@H]1CSCN1C(=O)CNC(=O)c1ccnc2ccc(N3CC4CC(C3)O4)cc12 [Example 77, 6-(6-Oxa-3-azabicyclo[3.1.1]heptan-3-yl)-N-(2-((R)-4-cyanothiazolidin-3-yl)-2-oxoethyl)quinoline-4-carboxamide] | 0.000066 s⁻¹ | 4800000 M⁻¹ s⁻¹ | 470 nM | 0.014 nM |  | 850 µM (≈ 360 µg/mL) | 0.051 nM | 7.1 µL/min/mg | 5.4 μL/min/1E6 | 5.7 nm/s | 160 nm/s | 29 |
| 0.5 nM | 1500 nM | > 100000 nM | 6600 nM | 19 nM | C[C@@H]1CN(c2ccc3nccc(C(=O)NCC(=O)N4CSC[C@H]4C#N)c3c2)C[C@H](C)O1 [Example 68, N-(2-((R)-4-Cyanothiazolidin-3-yl)-2-oxoethyl)-6-((2R,6S)-2,6-dimethylmorpholino)-quinoline-4-carboxamide] | 0.00011 s⁻¹ | 1000000 M⁻¹ s⁻¹ | 1700 nM |  |  |  |  |  |  |  |  |  |
